{
  "source": "patent US12691186B2",
  "about": "“B7-H3 miniproteins, conjugates, and uses thereof” (priority 2023, dated 2026)",
  "key": {"[1]": {"tested_on": "opossum kidney proximal tubule cells", "experiment": "OK-PTC uptake assay of miniprotein conjugates in presence of scaffold A decoys", "assay_type": "cell-based", "details": "compound 20 μM; for % Uptake reduction in the presence of a decoy C118: 20-fold molar excess of decoy C118; for % Uptake reduction in the presence of a decoy C119: 20-fold molar excess of decoy C119; for % Uptake reduction in the presence of a decoy C120: 20-fold molar excess of decoy C120", "protocol": "This Example describes reduction of uptake of exemplary truncated and constrained B7-H3 miniprotein conjugates (C272, C308, C234, C394, C250, and C228) when combined with exemplary scaffold A decoys (C118, C119 and C120) as compared to no decoy. Uptake of compounds was evaluated in opossum kidney proximal tubule cells (as described in Example 5). Here, cells were treated with a compound in the presence or absence of a 20-fold molar excess of exemplary scaffold A decoys, C118, C119, and C120. Results depicting uptake of six exemplary B7-H3-targeting compounds, C272, C308, C234, C394, C250, and C228, in OK-PTC cells in the presence and absence of exemplary decoys C118, C119, and C120 (scaffold A decoys) are shown in Table 13. The B7-H3-targeting compounds were used at 20 μM and the decoys used at a 20-fold (with C272, C308, C234, C394, and C250) and 10-fold (with C228) molar excess."}, "[2]": {"experiment": "Thermal stability (Tm) of B7-H3 miniprotein conjugates", "assay_type": "physicochemical", "protocol": "Thermal stability was assessed for several exemplary miniprotein conjugates and reported as Tm (e.g., see Table 7A).\nAs compared to unconstrained sequences (e.g., as in Table 2A and shown for C211 in Table 7A), those with disulfide bonds (e.g., as in Table 2C and shown for C234, C275, C294, and C309 in Table 7A) were more thermally stable (see Table 7A), and exemplary compounds with two disulfide bridges (C234, C275, and C309) were stable at higher temperatures than an exemplary compound with one disulfide bridge (C294)."}, "[3]": {"tested_on": ">6,500 different human proteins", "experiment": "Off-target binding, cell microarray platform (Retrogenix Assay) in HEK293 cells", "details": "biotin-labeled molecules", "protocol": "To evaluate potential off-target binding, eight biotin-labeled molecules were tested in a cell microarray platform (Charles River Lab, Retrogenix Assay) having >6,500 different human proteins spanning diverse functions and subcellular locations.\nInitially, two pools of molecules were tested. Pool #1 consisted of C298, C300, C302, C304, and pool #2 consisted of C306, C308, C310, and C312 at 2 μg/mL for each molecule. To perform this assay, HEK293 cells were plated on a dish and localized spots of cells were transiently over-expressed with a cDNA encoding for one of the >6,500 targets. Included in this library were two isoforms of CD276 (B7-H3) and B7-H3 related proteins (B7-1, B7-2, B7-H1/PD-L1, and B7-H2). The molecule pools were incubated on the fixed, over-expressing cell microarrays (n=2 per protein), and binding was visualized using Alexa Fluor 647 streptavidin fluorescence. All transfection efficiencies exceeded minimum thresholds for the microarray expression targets. Preliminary interactions identified from pooled results were re-spotted in duplicates, and each of the eight compounds were tested individually (n=2) at 2 μg/mL and/or in dose response against these targets as described above to validate the interactions.\nAll positive control interactions were strong and passed quality control. Specific interactions observed (median SNR≥1) confirmed on-target B7-H3 binding in two different isoforms for each of the eight test molecules. These interactions with the primary target occurred after fixation and in live cells (absence of fixation). No significant additional interactions were confirmed for any test molecules outside of B7-H3, indicating high specificity for the primary target (data not shown)."}, "[4]": {"experiment": "In vitro metabolic stability, kidney brush border membrane (KBBM), mouse", "assay_type": "in vitro ADME", "details": "37° C.", "description": "(§1) This Example describes in vitro metabolic stability of exemplary B7-H3 miniprotein conjugates.\n(§2) Pharmacokinetic assessments are described in Example 18."}, "[5]": {"experiment": "In vitro metabolic stability, plasma, mouse", "assay_type": "in vitro ADME", "details": "37° C.", "description": "as §1, §2"}, "[6]": {"tested_on": "opossum kidney proximal tubule cells", "experiment": "Proximal tubule epithelial cell (OK cell) uptake assay relative to control C4", "assay_type": "cell-based", "experimental": "Inhibition constant (Ki) of each conjugate was measured using DELFIA as described herein."}},
  "note": "Bridges are numbered along the chain shown (N, C = ends). Primed or numbered codes have the meaning given here. Where no end group is shown, it is not given here. [ ]: non-standard residue; d: D form. The star is where a group is joined. DOTA = O=C(O)CN1CCN(CC(=O)O)CCN(CC(=O)*)CCN(CC(=O)O)CC1; Biotin = O=C1N[C@H]2[C@H](CS[C@H]2CCCCC(=O)*)N1; Lys(Me2) = CN(C)CCCC[C@H](N)C(=O)O; PEG4 = NCCOCCOCCOCCOCCC(=O)O; PEG4′ = not defined here",
  "data": [
    {"compound": "CC[C@H](C)[C@@H]1NC(=O)[C@H](Cc2ccccc2)NC(=O)[C@H](C)NC(=O)[C@H](CCCCN(C)C)NC(=O)[C@H]([C@@H](C)CC)NC(=O)[C@H](CCC(N)=O)NC(=O)[C@H](C)NC(=O)[C@H](Cc2ccc(O)cc2)NC(=O)[C@H]([C@@H](C)O)NC(=O)[C@H](CC(C)C)NC(=O)[C@@H]2CSSC[C@@H](C(=O)N[C@@H](CO)C(N)=O)NC(=O)[C@H](CC(C)C)NC(=O)[C@H](CCC(=O)O)NC(=O)[C@H](CCCCN)NC(=O)[C@H](C)NC(=O)[C@H](CCC(=O)O)NC(=O)[C@H](CO)NC(=O)[C@H](CC(C)C)NC(=O)[C@H]([C@@H](C)CC)NC(=O)[C@H](CCC(=O)O)NC(=O)[C@H](CO)NC(=O)[C@H](CO)NC(=O)[C@H](CCC(N)=O)NC(=O)[C@H](CSSC[C@H](NC(=O)CCOCCOCCOCCOCCNC(=O)CCCC[C@@H]3SC[C@@H]4NC(=O)N[C@@H]43)C(=O)N[C@@H](C)C(=O)N[C@@H](CCCC[N+](C)(C)C)C(=O)N[C@@H](CCC(=O)O)C(=O)N[C@@H](CCCCN)C(=O)N[C@@H]([C@@H](C)CC)C(=O)N[C@@H](C)C(=O)N[C@@H](C)C(=O)N[C@@H](CC(C)C)C(=O)N[C@@H](CO)C(=O)N[C@@H](CCC(=O)O)C(=O)N[C@@H]([C@@H](C)CC)C(=O)N[C@@H]([C@@H](C)CC)C(=O)N[C@@H](Cc3c[nH]c4ccccc34)C(=O)N[C@@H](CC(C)C)C(=O)N3CCC[C@H]3C(=O)N2)NC(=O)[C@@H]2CCCN2C(=O)[C@H](CC(=O)O)NC(=O)[C@H](CC(=O)O)NC(=O)[C@H](CC(N)=O)NC(=O)[C@H](CC(C)C)NC(=O)[C@H](C)NC(=O)[C@H](C)NC1=O", "note": "[Compound C234]", "values": [
      {"measurement": "% Uptake reduction in the presence of a decoy C118", "setting": "[1]", "value": 86.4, "unit": "%"},
      {"measurement": "% Uptake reduction in the presence of a decoy C119", "setting": "[1]", "value": 96.2, "unit": "%"},
      {"measurement": "% Uptake reduction in the presence of a decoy C120", "setting": "[1]", "value": 96.9, "unit": "%"},
      {"measurement": "Tm (° C.)", "setting": "[2]", "value": "~≥75 °C"}
    ]},
    {"compound": "CC[C@H](C)[C@@H]1NC(=O)[C@H](Cc2ccccc2)NC(=O)[C@H](C)NC(=O)[C@H](CCCCNC)NC(=O)[C@H]([C@@H](C)CC)NC(=O)[C@H](CCC(N)=O)NC(=O)[C@H](C)NC(=O)[C@H](Cc2ccc(O)cc2)NC(=O)[C@H]([C@@H](C)O)NC(=O)[C@H](CC(C)C)NC(=O)[C@@H]2CSSC[C@@H](C(=O)N[C@@H](CO)C(N)=O)NC(=O)[C@H](CC(C)C)NC(=O)[C@H](CCC(=O)O)NC(=O)[C@H](CCCCNC)NC(=O)[C@H](C)NC(=O)[C@H](CCC(=O)O)NC(=O)[C@H](CO)NC(=O)[C@H](CC(C)C)NC(=O)[C@H]([C@@H](C)CC)NC(=O)[C@H](CCC(=O)O)NC(=O)[C@H](CO)NC(=O)[C@H](CO)NC(=O)[C@H](CCC(N)=O)NC(=O)[C@H](CSSC[C@H](NC(=O)CCOCCOCCOCCOCCNC(=O)CCCC[C@@H]3SC[C@@H]4NC(=O)N[C@@H]43)C(=O)N[C@@H](C)C(=O)N[C@@H](CCCC[N+](C)(C)C)C(=O)N[C@@H](CCC(=O)O)C(=O)N[C@@H](CCCCN)C(=O)N[C@@H]([C@@H](C)CC)C(=O)N[C@@H](C)C(=O)N[C@@H](C)C(=O)N[C@@H](CC(C)C)C(=O)N[C@@H](CO)C(=O)N[C@@H](CCC(=O)O)C(=O)N[C@@H]([C@@H](C)CC)C(=O)N[C@@H]([C@@H](C)CC)C(=O)N[C@@H](Cc3c[nH]c4ccccc34)C(=O)N[C@@H](CC(C)C)C(=O)N3CCC[C@H]3C(=O)N2)NC(=O)[C@@H]2CCCN2C(=O)[C@H](CC(=O)O)NC(=O)[C@H](CCCCNC)NC(=O)[C@H](CC(N)=O)NC(=O)[C@H](CC(C)C)NC(=O)[C@H](CCCCNC)NC(=O)[C@H](C)NC1=O", "note": "[Compound C308]", "values": [
      {"measurement": "% Uptake reduction in the presence of a decoy C118", "setting": "[1]", "value": 107.9, "unit": "%"},
      {"measurement": "% Uptake reduction in the presence of a decoy C119", "setting": "[1]", "value": 108.6, "unit": "%"},
      {"measurement": "% Uptake reduction in the presence of a decoy C120", "setting": "[1]", "value": 104.5, "unit": "%"},
      {"measurement": "background binding to untransfected HEK293 cells", "setting": "[3]", "value": "low-background binding"}
    ]},
    {"compound": "C41 ({DOTA-PEG4′}-AEALYAQEKIAALSEIIWLPNLTHGQIMAFIAALNNDPSQSSELLSEAEQLNDSQAPG-OH; also: In complexed by DOTA) [Compound C41]", "values": [
      {"measurement": "In vitro Stability (mouse) - KBBM", "setting": "[4]", "value": ">12"},
      {"measurement": "In vitro Stability (mouse) - Plasma", "setting": "[5]", "value": ">12"}
    ]},
    {"compound": "C44: B7-H3 miniprotein test article of Table 5 ({DOTA-PEG4′}-YAQEKIAALSEIIWLPNLTHGQIMAFIAALNNDPSQSSELLSEALALNDSQAPG; also: In complexed by DOTA) [Compound C44]", "values": [
      {"measurement": "In vitro Stability (mouse) - KBBM", "setting": "[4]", "value": ">12"},
      {"measurement": "In vitro Stability (mouse) - Plasma", "setting": "[5]", "value": ">12"}
    ]},
    {"compound": "{Biotin-PEG4}-CAREKIAALSEIIWLPCLTYAQIKAFIAALNDDPCQSSEILSEAKELCS-NH2 (disulfide 1-35, 17-48) [Compound C284]", "values": [
      {"measurement": "% Uptake of C4", "setting": "[6]", "value": 56.6, "unit": "%"}
    ]},
    {"compound": "{Biotin-PEG4}-CAREKIAALSEIIWLPCLTYAQILAFIAALNDDPCQSSEILSEAKELCS-NH2 (disulfide 1-35, 17-48) [Compound C286]", "values": [
      {"measurement": "% Uptake of C4", "setting": "[6]", "value": 26, "unit": "%"}
    ]},
    {"compound": "{Biotin-PEG4}-CAREKIAALSEIIWLPCLTYAQIQAFIAALNDDPCQSSEILSEAKELCS-NH2 (disulfide 1-35, 17-48) [Compound C290]", "values": [
      {"measurement": "% Uptake of C4", "setting": "[6]", "value": 17, "unit": "%"}
    ]},
    {"compound": "{Biotin-PEG4}-CAREKIAALSEIIWLPCLTYAQIVAFIAALNDDPCQSSEILSEAKELCS-NH2 (disulfide 1-35, 17-48) [Compound C291]", "values": [
      {"measurement": "% Uptake of C4", "setting": "[6]", "value": 30, "unit": "%"}
    ]},
    {"compound": "{Biotin-PEG4}-CAREKIAALSEIIWLPCLTYAQI[Lys(Me2)]AFIAALNDDPCQSSEILSEAKELCS-NH2 (disulfide 1-35, 17-48) [Compound C275]", "values": [
      {"measurement": "% Uptake of C4", "setting": "[6]", "value": 3, "unit": "%"},
      {"measurement": "Tm (° C.)", "setting": "[2]", "value": "~≥75 °C"}
    ]}
  ]
}
